Patent US7696238B2, “Substituted benzo[d]isoxazol-3-yl amine compounds as analgesics” (Gruenenthal GmbH, priority 2005, dated 2010)

Experiments:
[1] = target: T1, KCNQ2/3 ion channel (KCNQ2/3-expressing CHO-K1 cells) (Homo sapiens, UniProt O43525+O43526); test: Fluorescence assay (FLIPR instrument, membrane potential dye) for substances acting agonistically on the KCNQ2/3 ion channel; format: cell-based; conditions: difference between maximum and minimum values, agonistic action detected from a value of −40 (and below)
T1 construct: expressed in transfected cells; host or cells: CHO-K1
Protocol: Pharmacological Test Methods I. Fluorescence Assay (FLIPR™ Instrument) for the Identification of Substances Acting Agonistically on the KCNQ2/3 Ion Channel
On the day before the experiment, KCNQ2/3-expressing CHO-K1 cells and CHO-K1 empty strain cells were seeded out onto coated poly-D-lysine black/clear plates (Falcon/BD Company; Order No.: 356640) in a concentration of 20000 cells/100 μl MEM alpha, 50 ml FCS, 5.5 ml PIS/G/solution (100×) and then incubated for 20-24 hours in an incubator (37° C., 5% CO2). On the day of the experiment the HBSS/hepes working solution and the FMP/HBSS/hepes mixture (Membrane Potential Assay Kit Red (FMP), bulk format Cat. No. R8123) were initially prepared according to the following protocol:
• 1000 ml 1× HBSS buffer (Hank's Balanced Salt Solution (1×) (Gibco; No. 14025)+10 ml hepes (1M stock solution, pH 7.4; hepes Na salt (Sigma Company; No. H7006-500 g; storage at 4° C. in a refrigerator) 2. 1× FMP/HBSS/hepes working solution: • 6 ml HBSS/hepes buffer are added to 5 ml of the FMP solution stored at −20° C. (preparation see below; thawing out at room temperature). The test substances (2 mM batch solution in 100% DMSO) contained in drug plates (Costar 96-well plates, catalogue No. 3795) were then diluted by adding HBSS/hepes buffer to a concentration of 30 μM (3× concentrated). The assay plates on which the cells grow were washed once with 200 μl HBSS/hepes (Cellwash Washer, Labsystems Company, catalogue No. 5161550) and the remaining volume was removed by tapping out the inverted plate twice. 100 μl of the FMP/HBSS/hepes working solution were then added in each case to the cell plates and incubated for 1 hour in the CO2 incubator at 37° C. and 5% CO2. The measurements are then carried out with a FLIPR III instrument from the Molecular Devices company (96-format, using the 540-590 nm band-pass filter in the #2 localization). In the experimental setup of the FLIPR software, filter #2 should be selected. The cell plates and the substance plates were fed alternately into the input stack. A signal test was carried out in each case with the cell plates before adding the substance. The test substances were then added via the pipetting unit of the FLIPR (added volume 50 μl, 3× concentrated, end concentration 10 μM) to the cavities of the cell plates in a total volume of 150 μl/well. The threshold data of the FLIPR program were as follows:
The pipette tips were washed after each pipetting procedure 3 times with 1% DMSO in water. The times of the measurement intervals after addition of the test substances are as follows:
Total measurement time: 6 min/plate
The test samples were evaluated by calculating the difference between the maximum and minimum values. EC50/IC50 values are calculated using the Graph Pad Prism software.
Preparation of the membrane potential loading buffer (membrane potential assay kit red (FMP), bulk format cat. No. R8123) according to the manufacturer's instructions:
10 ml of the 10× assay buffer (component B) were diluted with 90 ml of sterile water and then adjusted to pH 7.4 with 1.0N NaOH (1× assay buffer). One vessel with the FLIPR membrane potential assay component A was completely dissolved in 100 ml 1× assay buffer and thoroughly mixed for 10 minutes with a magnetic stirrer. 5 ml aliquots were then stored at −20° C. (storage shelf life ca. 2 weeks).
An agonistic action can be detected starting from a value of −40 (and below).

[2] = target: T2, hKCNQ2/3 (stably transfected hKCNQ2/3 CHO-K1 cell line) (Homo sapiens, UniProt O43525+O43526); test: Voltage clamp (patch-clamp) measurements, current increase relative to retigabin; format: cell-based; conditions: test substance 10 μM at −40 mV; current increase standardized to retigabin (10 μM) effect
T2 construct: expressed in transfected cells; host or cells: CHO-K1
Protocol: II. Voltage Clamp Measurements
In order to confirm electrophysiologically a KCNQ2/3 agonistic action of the substances, patch-clamp measurements [see Hamill O P, Marty A, Neher E, Sakmann B, Sigworth F J: “Improved patch-clamp techniques for high-resolution current recording from cells and cell-free membrane patches”, Pflugers Arch. 1981 August; 391(2):85-100] were carried out in the voltage clamp mode on a stably transfected hKCNQ2/3 CHO-K1 cell line. After formation of the gigaseal the cells were first of all clamped at a holding potential of −60 mV. Depolarising voltage jumps were then applied up to a potential of +20 mV (increment: 20 mV, duration: 1 second), in order to confirm the functional expression of KCNQ2/3 typical currents. The substances were tested at a potential of −40 mV. The current increase induced by retigabin (10 μM) was first of all recorded on each cell at −40 mV as positive control. After completely washing out the retigabin effect (duration: 80 sec) the test substance (10 μM) was applied. The current increase induced by the test substance was standardized to the retigabin effect and stated as relative efficacy (see below).

FLIPR membrane potential fluorescence change (ΔF %, max minus min); negative values indicate KCNQ2/3 agonism [1]: −56%
Voltage clamp: relative efficacy with respect to retigabin [10 μM] [2]: 1.29
SMILES: Fc1cc(C(F)(F)F)ccc1CNc1noc2ccccc12 [Example 163, benzo[d]isoxazol-3-yl-(2-fluoro-4-trifluoromethyl-benzyl)-amine]
